US20230123334A1, “AMINO LIPID COMPOUND, PREPARATION METHOD THEREFOR, AND APPLICATION THEREOF” (SHENZHEN SHENXIN BIOTECHNOLOGY CO., LTD., priority 2020, published 2023)

Test system: HEK293 cells
Assay: Preliminary screening as DNA vectors, GFP transfection of HEK293 cells
Assay type: cell-based
Details: amino lipid/DOPE liposome with 75 ng plasmid DNA (psin-EGFP-IRES-Puro); number of GFP-expressing cells divided by total nuclei (Hoechst)
How it was run: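 Lipid + DOPE liposomes (NaOAc, pH 5.6) complexed w/ 75 ng psin-EGFP-IRES-Puro, 30 min RT; added to 3-5×10^4 HEK293/well, 37° C. Hoechst 0.2 μg/mL at 20-24 h, imaged after further 20-24 h. Efficiency = GFP+ cells / total nuclei.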

Row | SMILES | Absolute DNA transfection efficiency in HEK293 cells [%]
1 | CCCCCCCCCNc1nc(NCCN2CCOCC2)nc(SCCCCCCCC)n1 [S8N9 D2] | 10.7
2 | CCCCCCCCCNc1nc(NCCN2CCCC2)nc(SCCCCCCCC)n1 [S8N9 D3] | 32.7
3 | CCCCCCCCCNc1nc(NCCN2CCCCC2)nc(SCCCCCCCC)n1 [S8N9 D4] | 15.5
4 | CCCCCCCCCNc1nc(NCCN2CCN(C)CC2)nc(SCCCCCCCC)n1 [S8N9 D5] | 35.9
5 | CCCCCCCCCNc1nc(NCCCN(C)C)nc(SCCCCCCCC)n1 [S8N9 D6] | 33.3
6 | CCCCCCCCCNc1nc(NCCN(CC)CC)nc(SCCCCCCCC)n1 [S8N9 D7] | 26.0
7 | CCCCCCCCCNc1nc(NCCCN2CCOCC2)nc(SCCCCCCCC)n1 [S8N9 D8] | 14.8
8 | CCCCCCCCCNc1nc(NCCCN2CCN(C)CC2)nc(SCCCCCCCC)n1 [S8N9 D9] | 32.1
9 | CCCCCCCCCNc1nc(NCC2CCN(C)CC2)nc(SCCCCCCCC)n1 [S8N9 D10] | 36.3
10 | CCCCCCCCCCCNc1nc(NCCN(C)C)nc(SCCCCCCCC)n1 [S8N11 D1] | 42.2
11 | CCCCCCCCCCCNc1nc(NCCN2CCOCC2)nc(SCCCCCCCC)n1 [S8N11 D2] | 25.4
12 | CCCCCCCCCCCNc1nc(NCCN2CCCC2)nc(SCCCCCCCC)n1 [S8N11 D3] | 52.0
13 | CCCCCCCCCCCNc1nc(NCCN2CCCCC2)nc(SCCCCCCCC)n1 [S8N11 D4] | 14.3
14 | CCCCCCCCCCCNc1nc(NCCN2CCN(C)CC2)nc(SCCCCCCCC)n1 [S8N11 D5] | 52.7
15 | CCCCCCCCCCCNc1nc(NCCCN(C)C)nc(SCCCCCCCC)n1 [S8N11 D6] | 99.4
16 | CCCCCCCCCCCNc1nc(NCCN(CC)CC)nc(SCCCCCCCC)n1 [S8N11 D7] | 24.6
17 | CCCCCCCCCCCNc1nc(NCCCN2CCOCC2)nc(SCCCCCCCC)n1 [S8N11 D8] | 13.7
18 | CCCCCCCCCCCNc1nc(NCCCN2CCN(C)CC2)nc(SCCCCCCCC)n1 [S8N11 D9] | 63.6
19 | CCCCCCCCCCCNc1nc(NCC2CCN(C)CC2)nc(SCCCCCCCC)n1 [S8N11 D10] | 46.3
20 | CCCCCCCCCCCCNc1nc(NCCN(C)C)nc(SCCCCCCCC)n1 [S8N12 D1] | 22.1
21 | CCCCCCCCCCCCNc1nc(NCCN2CCOCC2)nc(SCCCCCCCC)n1 [S8N12 D2] | 38.1
22 | CCCCCCCCCCCCNc1nc(NCCN2CCCC2)nc(SCCCCCCCC)n1 [S8N12 D3] | 17.8
23 | CCCCCCCCCCCCNc1nc(NCCN2CCCCC2)nc(SCCCCCCCC)n1 [S8N12 D4] | 7.6
24 | CCCCCCCCCCCCNc1nc(NCCN2CCN(C)CC2)nc(SCCCCCCCC)n1 [S8N12 D5] | 41.7
25 | CCCCCCCCCCCCNc1nc(NCCCN(C)C)nc(SCCCCCCCC)n1 [S8N12 D6] | 78.3

Row | SMILES | Absolute DNA transfection efficiency in HEK293 cells [%]
26 | CCCCCCCCCCCCNc1nc(NCCN(CC)CC)nc(SCCCCCCCC)n1 [S8N12 D7] | 9.5
27 | CCCCCCCCCCCCNc1nc(NCCCN2CCOCC2)nc(SCCCCCCCC)n1 [S8N12 D8] | 16.1
28 | CCCCCCCCCCCCNc1nc(NCCCN2CCN(C)CC2)nc(SCCCCCCCC)n1 [S8N12 D9] | 48.3
29 | CCCCCCCCCCCCNc1nc(NCC2CCN(C)CC2)nc(SCCCCCCCC)n1 [S8N12 D10] | 44.5
30 | CCCCCCCCCCCCCNc1nc(NCCN(C)C)nc(SCCCCCCCC)n1 [S8N13 D1] | 18.3
31 | CCCCCCCCCCCCCNc1nc(NCCN2CCOCC2)nc(SCCCCCCCC)n1 [S8N13 D2] | 19.7
32 | CCCCCCCCCCCCCNc1nc(NCCN2CCCC2)nc(SCCCCCCCC)n1 [S8N13 D3] | 30.5
33 | CCCCCCCCCCCCCNc1nc(NCCN2CCCCC2)nc(SCCCCCCCC)n1 [S8N13 D4] | 3.8
34 | CCCCCCCCCCCCCNc1nc(NCCN2CCN(C)CC2)nc(SCCCCCCCC)n1 [S8N13 D5] | 28.3
35 | CCCCCCCCCCCCCNc1nc(NCCCN(C)C)nc(SCCCCCCCC)n1 [S8N13 D6] | 55.1
36 | CCCCCCCCCCCCCNc1nc(NCCN(CC)CC)nc(SCCCCCCCC)n1 [S8N13 D7] | 8.9
37 | CCCCCCCCCCCCCNc1nc(NCCCN2CCOCC2)nc(SCCCCCCCC)n1 [S8N13 D8] | 13.3
38 | CCCCCCCCCCCCCNc1nc(NCCCN2CCN(C)CC2)nc(SCCCCCCCC)n1 [S8N13 D9] | 27.9
39 | CCCCCCCCCCCCCNc1nc(NCC2CCN(C)CC2)nc(SCCCCCCCC)n1 [S8N13 D10] | 18.7
40 | CCCCCCCCCCCCCCCNc1nc(NCCN(C)C)nc(SCCCCCCCC)n1 [S8N15 D1] | 8.0
41 | CCCCCCCCCCCCCCCNc1nc(NCCN2CCOCC2)nc(SCCCCCCCC)n1 [S8N15 D2] | 4.9
42 | CCCCCCCCCCCCCCCNc1nc(NCCN2CCCC2)nc(SCCCCCCCC)n1 [S8N15 D3] | 9.9
43 | CCCCCCCCCCCCCCCNc1nc(NCCN2CCCCC2)nc(SCCCCCCCC)n1 [S8N15 D4] | 0.9
44 | CCCCCCCCCCCCCCCNc1nc(NCCN2CCN(C)CC2)nc(SCCCCCCCC)n1 [S8N15 D5] | 10.4
45 | CCCCCCCCCCCCCCCNc1nc(NCCCN(C)C)nc(SCCCCCCCC)n1 [S8N15 D6] | 23.7
46 | CCCCCCCCCCCCCCCNc1nc(NCCN(CC)CC)nc(SCCCCCCCC)n1 [S8N15 D7] | 2.2
47 | CCCCCCCCCCCCCCCNc1nc(NCCCN2CCOCC2)nc(SCCCCCCCC)n1 [S8N15 D8] | 7.7
48 | CCCCCCCCCCCCCCCNc1nc(NCCCN2CCN(C)CC2)nc(SCCCCCCCC)n1 [S8N15 D9] | 12.4
49 | CCCCCCCCCCCCCCCNc1nc(NCC2CCN(C)CC2)nc(SCCCCCCCC)n1 [S8N15 D10] | 22.6
50 | CCCCCCCCCCCCCCCCNc1nc(NCCN(C)C)nc(SCCCCCCCC)n1 [S8N16 D1] | 7.1
